# The METLIN SMRT retention time set (Domingo-Almenara et al. 2019)
# Assay: gradient 5% acetonitrile 3 min, to 50% in 2 min, to 85% in 15 min, held 3 min, 100 µL/min
# Conditions: column: Zorbax Extend-C18 2.1 x 50 mm; eluents: water / acetonitrile, 0.1% formic acid
# Procedure, shortened: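 Values are retention times taken from adduct peaks that software picked and an analyst inspected. The pure standards were run as mixtures of ~100 molecules on HPLC linked to a quadrupole time-of-flight mass spectrometer, in positive and negative ionization mode. A Zorbax Extend-C18 column (2.1 × 50 mm, 1.8 μm) was used at 100 μL/min with water and acetonitrile, each including 0.1% formic acid.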
row,Compound,RP-LC retention time [s]
1,CC1=C(c2ccccc2)S(=O)(=O)N=C1N1CCCN(C(=O)c2ccccc2C)CC1,808
2,CN1CCN(c2cccc(Nc3nc4c(-c5ccc(S(C)(=O)=O)cc5)cccn4n3)c2)CC1,675
3,CC(NC(=O)c1ccc(CN2CCN(Cc3ccccc3)C(=O)C2=O)cc1)c1ccccc1 (centres undefined),812
4,Clc1ccc(C(Cn2ccnc2)OCc2csc3c(Cl)cccc23)c(Cl)c1 (centres undefined),974
5,O=C(COc1ccccc1)N1CC(n2cnnc2C2CC2)C1,620
6,O=C(Nc1cnc(N2CCCCC2)nc1)C1CCCC1,834
7,CCCn1cc(C(=O)NCCN2CCCC2)c2cccnc21,589
8,CC1Oc2ccc(S(=O)(=O)N3CCC(C(=O)Nc4ccc(F)cc4)CC3)cc2NC1=O (centres undefined),829
9,Cn1nc(C(=O)N2C[C@@H](Oc3ccccc3)C[C@H]2C(=O)NC2CC2)c2ccccc21,802
10,O=C(Cc1ccccc1)N1CCN(c2cc(-c3cccs3)[nH]n2)CC1,765
11,O=C(CCCn1nnc2ccccc2c1=O)Nc1ccccc1Cl,770
12,CC(C)CCNC(=O)C1(C)CN(S(=O)(=O)c2ccccc2)CC(=O)N1Cc1ccc(Cl)cc1 (centres undefined),1040
13,CC(C)S(=O)(=O)c1ccc(CC(=O)N2CC(c3nc4ccccc4[nH]3)C2)cc1,562
14,COCc1nc(CCNS(=O)(=O)c2ccc(F)cc2)no1,731
15,CN1CCN(CCCNC(=O)c2ccc(CS(=O)c3cccc(Cl)c3)o2)CC1 (centres undefined),527
16,CCC(C)NC(=O)CCn1c(=O)c2ccccc2n2c(=O)n(Cc3ccccc3F)nc12 (centres undefined),884
17,Cn1nc(-c2nc(C3CC3)no2)c2c1CCN(S(=O)(=O)c1ccccc1Cl)C2,952
18,CCOc1ccc(NC(=O)N2CCC3(CC2)NC(=O)c2ccc(Cl)cc2N3CC)cc1,874
19,CC(C)CC(=O)N1CCCCCCNC(=O)[C@@H]2CCCC[C@@H]21,833
20,COC1CCC12CCN(C(=O)c1c(C)noc1C)CC2 (centres undefined),716

row,Compound,RP-LC retention time [s]
1,O=S(=O)(c1ccc(F)cc1)N1CCc2nc(-c3ccccc3)ncc2C1,1040
2,Cc1ccc(N2C(=O)CN(CCc3cccs3)[C@H]3CS(=O)(=O)C[C@H]32)cc1,825
3,COC(=O)c1ccccc1NC(=O)CCc1c(-c2ccc(Cl)cc2)nc2ccccn12,772
4,O=C1C(=O)N(Cc2ccc(C(=O)N3CCOCC3)cc2)CCN1Cc1ccc(F)cc1,652
5,O=C(N1CCC(Cc2ccc(COCc3ccncc3)cc2)CC1)C1(c2ccccc2)CC1,795
6,CCCN1C(=O)c2cc(S(=O)(=O)Nc3cc(F)cc(F)c3)ccc2Oc2cccnc21,1080
7,CCOc1ccccc1C(=O)N1CCC2(CC1)N=C(c1cccc(Br)c1)NO2,951
8,Cc1[nH]c2ccccc2c1CCNCc1ccc(/C=C/C(=O)NO)cc1,659
9,O=C(CCCc1nc2cccnc2n1Cc1ccc(F)cc1)N1CCCC1,707
10,COc1ccc(Cl)cc1NC(=O)CCc1c(-c2ccc(F)cc2)nc2ccccn12,724
11,COc1cccc(S(=O)(=O)N2CCC(N3CCN(Cc4ccccc4)C(=O)C3=O)CC2)c1,763
12,O=C(Cn1c2c(c(=O)n(C3CCCCC3)c1=O)CCC2)NCc1ccco1,764
13,O=C(NCCc1c[nH]c2ccccc12)C(=O)NCc1cccs1,783
14,COc1ccc(C(=O)N2CCC3(CC2)NC(=O)c2cc(Cl)ccc2N3C)cc1OC,742
15,CCc1ccc(N2C(C)=NS(=O)(=O)c3cccnc32)cc1,874
16,O=C(CCc1c(-c2ccc(Cl)cc2)nc2ccccn12)NCc1ccccn1,571
17,COC(=O)c1ccc(NC(=O)C(=O)NC(C)Cc2cccs2)cc1 (centres undefined),900
18,CCCNC(=O)N1CCC(CCOc2cccnc2)CC1,588
19,O=C(N[C@@H]1CN(c2ccncn2)C[C@H]1CO)c1nccc2ccccc12,581

# Now from value to compound:
row,RP-LC retention time [s],Compound
1,599,Cc1cc(C(=O)Nc2nnc(-c3csc(C)n3)o2)c(C)o1
2,916,CCCCN1C(=O)C(NC(=O)c2cccc(OC)c2)(C(F)(F)F)C(C(C)=O)=C1C (centres undefined)
3,865,O=C(NCc1cccc(Cl)c1)C1CCN(c2nnc(-c3ccccc3)o2)CC1
4,726,Cc1ccc2nc(-c3ccccc3)c(Nc3ccccc3C)n2c1
5,570,Cc1nc(N2CCN(C)CC2)cc(N2CCN(C(=O)c3ccc(Br)o3)CC2)n1
6,922,CCOc1ccc(NS(=O)(=O)c2ccc(-c3nnc(C4CCC4)o3)o2)cc1
7,883,CC(C)n1ncc(NC(=O)c2ccc(F)cc2)c(N2CCOCC2)c1=O
8,671,CCN(CC)CCCC(C)NC(=O)c1ccc2c(c1)C(=O)c1ccccc1C2=O (centres undefined)
9,589,Cc1ccc2cc(CCC(=O)NCCc3ccncc3)c(=O)[nH]c2c1
10,819,CSc1ccc(-c2nc3ccc(C)cn3c2Nc2ccc(C)cc2)cc1
11,767,COc1ccc(-c2nnc(N3CCC(C(=O)NCc4cccs4)CC3)o2)cc1
12,760,CC(C)NC(=O)c1cc2c(=O)oc3ccccc3c2n1C
13,702,CCC(=O)Nc1ccc(CCc2nc3ccc(C(=O)NC(c4cccs4)C(C)C)cc3[nH]2)cc1 (centres undefined)
14,1070,Cc1nc2cc(-c3noc(Cc4ccc(Cl)cc4)n3)ccc2o1
15,690,COc1ccc(NC(=O)c2ccc3[nH]c4c(c3c2)CN(C(C)=O)CC4)c(OC)c1
16,939,CCNC(=O)N1CC(Oc2cccc(-c3nc(-c4ccccc4)no3)c2)C1
17,644,COCCN1CN=C(Nc2nc(C)c3cccc(C)c3n2)NC1
18,1290,Fc1ccc(Cl)cc1-c1nc(-c2ccc(-n3cccn3)nc2)no1
19,976,COc1ccc(-c2ccc(=O)n(Cc3nc(-c4cccc(Cl)c4)no3)n2)cc1OC
20,579,CN(C)C(=O)CN1CCN(c2cc(C(=O)O)c3cc(NC(=O)c4ccc(F)cc4)ccc3n2)CC1
21,934,O=C(Cn1cccc1-c1nc(-c2ccccc2)cs1)N1CCOCC1
22,724,Cc1ccc(OCC(O)Cn2c(C3CC3)nc3ccccc32)cc1C (centres undefined)
23,768,Cc1nn(CC(=O)NC(C)(C)C)c(=O)c2c(C)n(-c3ccccc3)nc12
24,865,Cc1ccc(CNc2nc(-c3ccc(Cl)cc3)nc3ccccc23)o1
25,865,O=C(CCn1nnc2cc(-c3noc(-c4ccccc4F)n3)ccc21)N1CCCC1

row,RP-LC retention time [s],Compound
1,983,CCCN1C(=O)CCc2cc(NS(=O)(=O)c3ccc(Cl)c(Cl)c3)ccc21
2,996,CCOC(=O)c1sc(NC(=O)C(C)Oc2ccc(OC)cc2)nc1C (centres undefined)
3,848,CCc1nc(OCC(=O)Nc2cc(Cl)c(OC)cc2OC)c2ccccc2n1
4,635,O=c1cc(CSc2nc(NCc3ccc4c(c3)OCO4)c3ccccc3n2)nc2ccccn12
5,820,Cc1nc(C)c(C(=O)Nc2ccc(F)cc2Cl)s1
6,996,O=C(Cn1cccc1-c1nnc(-c2ccccc2)o1)N1CCN(c2ccccc2F)CC1
7,799,CCC(C)C(NC(=O)c1cc(C)cc(C)c1)C(=O)Nc1nc2ccccc2[nH]1 (centres undefined)
8,990,Cc1nc(-c2ccc(-c3noc(CNC(=O)Cc4ccc(Cl)cc4)n3)cc2)cs1
9,766,CCCCc1nnc(NC(=O)C2CC(=O)N(CCc3c[nH]c4ccc(OC)cc34)C2)s1 (centres undefined)
10,776,COCCN1C(=O)c2ccccc2C(C(=O)Nc2ccc(OC)c(OC)c2)C12CCCC2 (centres undefined)
11,973,COc1ccc(NC(=O)c2cn(-c3cc(N4CCCC(C)C4)ncn3)cn2)cc1OC (centres undefined)
12,728,Cc1cc(Br)ccc1NC(=O)CCc1c(-c2ccc(F)cc2)nc2ccccn12
13,876,CN(CCc1noc(COc2ccccc2)n1)C(=O)Nc1ccc(F)cc1
14,658,COc1ccc(N2CC(CNC(=O)Nc3c(F)cccc3F)CC2=O)cc1 (centres undefined)
15,671,Cc1nc(C)c(C(=O)NCC2Cn3cccc3C(=O)N2CC(C)C)s1 (centres undefined)
16,954,COc1ccc(-c2noc(CN3C(=O)COc4cc(C)ccc43)n2)cc1OC
17,636,Cc1ccc(NC(=O)CSc2nc(=O)n(CCN(C)C)c3c2CCC3)cc1
18,754,Cc1ccc(C)c(NC(=O)N2CCC(N3CCN(Cc4ccc(F)cc4)C(=O)C3=O)CC2)c1
19,950,Cc1ccc(NC(=O)N2CCC(C(C)C(=O)Nc3ccc(C)cc3Cl)CC2)cc1 (centres undefined)
20,1000,COc1ccc(OC)c(NC(=O)C(=O)c2cccn2C)c1
21,915,O=C(Nc1ccccc1C(F)(F)F)c1cnc(-c2ccccc2)nc1-c1ccncc1
22,852,O=C(COc1ccc(-c2cnc3ccccc3n2)cc1)Nc1ccccn1
23,736,COCCc1noc(C2CN(C(=O)C3COc4ccccc4O3)C2)n1 (centres undefined)
24,668,COCCOC1CCN(C(=O)Nc2ccc3c(c2)OCCO3)CC1
25,718,Cc1ccccc1NC(=O)Cn1cnc2onc(C)c2c1=O
